Target: T1, recombinant human estrone sulfatase (Homo sapiens, UniProt P08842)
T1 construct: made in house; host or cells: CHO (Chinese hamster ovary) cells
T1 sequence (P08842 22-583): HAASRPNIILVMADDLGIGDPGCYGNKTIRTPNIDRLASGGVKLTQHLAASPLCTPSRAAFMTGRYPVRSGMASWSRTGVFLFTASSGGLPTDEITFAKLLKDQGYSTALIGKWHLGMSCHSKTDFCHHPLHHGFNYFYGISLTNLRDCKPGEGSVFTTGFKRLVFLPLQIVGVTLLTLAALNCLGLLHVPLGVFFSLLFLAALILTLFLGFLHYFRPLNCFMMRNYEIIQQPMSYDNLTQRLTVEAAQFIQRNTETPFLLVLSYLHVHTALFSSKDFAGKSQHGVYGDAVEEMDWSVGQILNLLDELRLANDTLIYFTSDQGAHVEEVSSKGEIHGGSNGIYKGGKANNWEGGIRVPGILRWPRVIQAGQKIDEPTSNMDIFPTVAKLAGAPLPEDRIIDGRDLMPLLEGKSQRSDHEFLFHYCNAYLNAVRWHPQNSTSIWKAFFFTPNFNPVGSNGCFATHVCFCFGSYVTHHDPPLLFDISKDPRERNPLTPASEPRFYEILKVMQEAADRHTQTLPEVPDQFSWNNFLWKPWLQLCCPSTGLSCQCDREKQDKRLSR
Test: Estrone sulfatase (steroid sulfatase) inhibition test
Assay type: biochemical
Settings: test compound 1 μM; [6,7-3H] estrone sulfate 3.3 nmol/L; pH 7; 1 hour at 37° C.; read-out: Inhibitory activity against estrone sulfatase, Inhibition % (1 μM)
Description: Estrone Sulfatase (Steroid Sulfatase) Inhibition Test:
[6,7-^3H] Estrone sulfate (final concentration, 3.3 nmol/L; 300,000 dpm/tube), recombinant human estrone sulfatase (33 ng/tube) and an estra-1,3,5(10),16-tetraene derivative (final concentration, 1 μmol/L) were added to a phosphate buffer (pH 7; final volume, 0.15 mL) containing 0.25 mol/L of sucrose and 0.04 mol/L of nicotinamide, and allowed to enzymatically react for 1 hour at 37° C. The recombinant human estrone sulfatase was obtained by transforming a human estrone sulfatase gene into CHO (Chinese hamster ovary) cells and expressing it in the cells, and used after partial purification. After completion of the enzyme reaction, the reaction solution was mixed with toluene (0.5 mL), followed by stirring, and the mixture was centrifuged for 5 minutes at 9,000 rpm. Thereafter, the toluene extraction layer was separated and the radioactivity of the resulting [^3H]-estrone was measured with a liquid scintillation counter. The measurement was carried out by duplication, and the fluctuation within the assay was 10% or less. An enzyme reaction in the absence of the test compound was carried out at the same time. The activity of the test compound to inhibit estrone sulfatase was calculated by the following formula.
Inhibitory activity against estrone sulfatase (%)=100−(100×(A/B)) […]

Question: For C[C@]12CC[C@@H]3c4ccc(O)cc4CC[C@H]3[C@@H]1CC=C2C(=O)O [Compound 1, 3-hydroxyestra-1,3,5(10), 16-tetraene-17-carboxylic acid], which inhibition at 1 µM is on record?
Answer: Its inhibition at 1 µM is 48%.

From patent US6638923B2, “Estra-1,3,5(10),16-tetraene derivatives” (Kyowa Hakko Kogyo Co., Ltd., priority 1999, dated 2003)
